Active and inactive are the calls of the source. No rule for the calls is given here.
System: CCRIS mutagenicity, Ames/micronucleus/aberration tests
Assay: CCRIS mutagenicity studies
Text: The CCRIS database contains chemical records with carcinogenicity, mutagenicity, tumor promotion, and tumor inhibition test results. It was developed by the National Cancer Institute (NCI). Data are derived from studies cited in primary journals, current awareness tools, NCI reports, and other sources. Test results have been reviewed by experts in carcinogenesis and mutagenesis.
CCRIS provides historical information from the years 1985 - 2011. It is no longer updated.
This is an archive assay for CCRIS mutagenicity studies.

[1] = Test System: AMES SALMONELLA TYPHIMURIUM, Strain/Indicator: TA97, Metabolic Activation: NONE, Method: PREINCUBATION
[2] = Test System: AMES SALMONELLA TYPHIMURIUM, Strain/Indicator: TA98, Metabolic Activation: NONE, Method: PREINCUBATION
[3] = Test System: AMES SALMONELLA TYPHIMURIUM, Strain/Indicator: TA100, Metabolic Activation: NONE, Method: PREINCUBATION
[4] = Test System: AMES SALMONELLA TYPHIMURIUM, Strain/Indicator: TA1535, Metabolic Activation: NONE, Method: PREINCUBATION

**Q.** How did the mutagenic call (End Point: IN VITRO CHROMOSOMAL ABERRATIONS, Test System: CHINESE HAMSTER LUNG CELLS (CHL), Metabolic Activation: NONE) turn out when `Oc1cc(Cl)c(Cl)c(Cl)c1Cl` was run?
**A.** Its mutagenic call is “inactive; negative”.

**Q.** What about the mutagenic call (End Point: IN VITRO CHROMOSOMAL ABERRATIONS, Test System: CHINESE HAMSTER LUNG CELLS (CHL), Metabolic Activation: RAT, LIVER, S-9, KC-400) of the same molecule?
**A.** Its mutagenic call is “active; positive (structural changes)”.

**Q.** And the mutagenic call (End Point: IN VITRO CHROMOSOMAL ABERRATIONS, Test System: CHINESE HAMSTER OVARY CELLS (CHO), Metabolic Activation: NONE)?
**A.** Its mutagenic call is “inactive; negative”.

**Q.** And the mutagenic call (End Point: IN VITRO CHROMOSOMAL ABERRATIONS, Test System: CHINESE HAMSTER OVARY CELLS (CHO), Metabolic Activation: RAT, LIVER, S-9, AROCLOR 1254)?
**A.** Its mutagenic call is “active; positive (structural changes)”.

**Q.** What about the mutagenic call (Test System: AMES SALMONELLA TYPHIMURIUM, Strain/Indicator: TA97, Metabolic Activation: HAMSTER, LIVER, S-9, AROCLOR 1254 (10 OR 30%), Method: PREINCUBATION) of the same molecule?
**A.** The mutagenic call was “inactive; negative”.

**Q.** What about the mutagenic call [1] of the same molecule?
**A.** Its mutagenic call is “inactive; negative”.

**Q.** And the mutagenic call (Test System: AMES SALMONELLA TYPHIMURIUM, Strain/Indicator: TA97, Metabolic Activation: RAT, LIVER, S-9, AROCLOR 1254 (10 OR 30%), Method: PREINCUBATION)?
**A.** Its mutagenic call is “inactive; negative”.

**Q.** And the mutagenic call (Test System: AMES SALMONELLA TYPHIMURIUM, Strain/Indicator: TA98, Metabolic Activation: HAMSTER, LIVER, S-9, AROCLOR 1254 (10 OR 30%), Method: PREINCUBATION)?
**A.** The mutagenic call was “inactive; negative”.

**Q.** What about the mutagenic call [2] of the same molecule?
**A.** The mutagenic call was “inactive; negative”.

**Q.** And the mutagenic call (Test System: AMES SALMONELLA TYPHIMURIUM, Strain/Indicator: TA98, Metabolic Activation: RAT, LIVER, S-9, AROCLOR 1254 (10 OR 30%), Method: PREINCUBATION)?
**A.** The mutagenic call was “inactive; negative”.

**Q.** And the mutagenic call (Test System: AMES SALMONELLA TYPHIMURIUM, Strain/Indicator: TA100, Metabolic Activation: HAMSTER, LIVER, S-9, AROCLOR 1254 (10 OR 30%), Method: PREINCUBATION)?
**A.** Its mutagenic call is “inactive; negative”.

**Q.** What about the mutagenic call [3] of the same molecule?
**A.** The mutagenic call was “inactive; negative”.

**Q.** And the mutagenic call (Test System: AMES SALMONELLA TYPHIMURIUM, Strain/Indicator: TA100, Metabolic Activation: RAT, LIVER, S-9, AROCLOR 1254 (10 OR 30%), Method: PREINCUBATION)?
**A.** Its mutagenic call is “inactive; negative”.

**Q.** What about the mutagenic call (Test System: AMES SALMONELLA TYPHIMURIUM, Strain/Indicator: TA1535, Metabolic Activation: HAMSTER, LIVER, S-9, AROCLOR 1254 (10 OR 30%), Method: PREINCUBATION) of the same molecule?
**A.** Its mutagenic call is “inactive; negative”.

**Q.** What about the mutagenic call [4] of the same molecule?
**A.** Its mutagenic call is “inactive; negative”.

**Q.** What about the mutagenic call (Test System: AMES SALMONELLA TYPHIMURIUM, Strain/Indicator: TA1535, Metabolic Activation: RAT, LIVER, S-9, AROCLOR 1254 (10 OR 30%), Method: PREINCUBATION) of the same molecule?
**A.** Its mutagenic call is “inactive; negative”.

**Q.** For `c1cnc2c(c1)-c1ncsc1CC2`, which mutagenic call (Test System: AMES SALMONELLA TYPHIMURIUM, Strain/Indicator: TA1538, Metabolic Activation: RAT, LIVER, S-9, AROCLOR 1254, Method: STANDARD PLATE) is on record?
**A.** The mutagenic call was “inactive; negative”.

**Q.** With `O=C(O)C(=O)O` as the molecule, how does the mutagenic call [1] read?
**A.** The mutagenic call was “inactive; negative”.

**Q.** What about the mutagenic call (Test System: AMES SALMONELLA TYPHIMURIUM, Strain/Indicator: TA97, Metabolic Activation: RAT, LIVER, S-9, PHENOBARBITAL AND 5,6-BENZOFLAVONE, Method: PREINCUBATION) of the same molecule?
**A.** The mutagenic call was “inactive; negative”.

**Q.** And the mutagenic call (Test System: AMES SALMONELLA TYPHIMURIUM, Strain/Indicator: TA97, Metabolic Activation: S-9, Method: PREINCUBATION)?
**A.** The mutagenic call was “inactive; negative”.

**Q.** And the mutagenic call [2]?
**A.** Its mutagenic call is “inactive; negative”.

**Q.** And the mutagenic call (Test System: AMES SALMONELLA TYPHIMURIUM, Strain/Indicator: TA98, Metabolic Activation: RAT, LIVER, S-9, PHENOBARBITAL AND 5,6-BENZOFLAVONE, Method: PREINCUBATION)?
**A.** The mutagenic call was “inactive; negative”.

**Q.** And the mutagenic call (Test System: AMES SALMONELLA TYPHIMURIUM, Strain/Indicator: TA98, Metabolic Activation: RAT, LIVER, S-9, SODIUM PHENOBARBITAL AND 5,6-BENZOFLAVONE, Method: PREINCUBATION)?
**A.** Its mutagenic call is “inactive; negative”.

**Q.** What about the mutagenic call [3] of the same molecule?
**A.** Its mutagenic call is “inactive; negative”.

**Q.** What about the mutagenic call (Test System: AMES SALMONELLA TYPHIMURIUM, Strain/Indicator: TA100, Metabolic Activation: NONE, Method: PREINCUBATION (11 HR GROWTH PERIOD FOR BACTERIA)) of the same molecule?
**A.** The mutagenic call was “active; positive”.

**Q.** And the mutagenic call (Test System: AMES SALMONELLA TYPHIMURIUM, Strain/Indicator: TA100, Metabolic Activation: RAT, LIVER, S-9, PCB, Method: PREINCUBATION (11 HR GROWTH PERIOD FOR BACTERIA))?
**A.** The mutagenic call was “inactive; negative”.

**Q.** And the mutagenic call (Test System: AMES SALMONELLA TYPHIMURIUM, Strain/Indicator: TA100, Metabolic Activation: RAT, LIVER, S-9, PHENOBARBITAL AND 5,6-BENZOFLAVONE, Method: PREINCUBATION)?
**A.** Its mutagenic call is “inactive; negative”.

**Q.** What about the mutagenic call (Test System: AMES SALMONELLA TYPHIMURIUM, Strain/Indicator: TA100, Metabolic Activation: RAT, LIVER, S-9, SODIUM PHENOBARBITAL AND 5,6-BENZOFLAVONE, Method: PREINCUBATION) of the same molecule?
**A.** The mutagenic call was “inactive; negative”.

**Q.** And the mutagenic call (Test System: AMES SALMONELLA TYPHIMURIUM, Strain/Indicator: TA102, Metabolic Activation: NONE, Method: PREINCUBATION (5, 7 OR 11 HR GROWTH PERIOD FOR BACTERIA))?
**A.** The mutagenic call was “active; positive”.

**Q.** What about the mutagenic call (Test System: AMES SALMONELLA TYPHIMURIUM, Strain/Indicator: TA102, Metabolic Activation: RAT, LIVER, S-9, PCB, Method: PREINCUBATION (5 OR 7 HR GROWTH PERIOD FOR BACTERIA)) of the same molecule?
**A.** Its mutagenic call is “inactive; negative”.

**Q.** And the mutagenic call (Test System: AMES SALMONELLA TYPHIMURIUM, Strain/Indicator: TA102, Metabolic Activation: RAT, LIVER, S-9, PHENOBARBITAL AND 5,6-BENZOFLAVONE, Method: PREINCUBATION)?
**A.** The mutagenic call was “inactive; negative”.

**Q.** And the mutagenic call (Test System: AMES SALMONELLA TYPHIMURIUM, Strain/Indicator: TA102, Metabolic Activation: RAT, LIVER, S-9, SODIUM PHENOBARBITAL AND 5,6-BENZOFLAVONE, Method: PREINCUBATION)?
**A.** The mutagenic call was “inactive; negative”.

**Q.** And the mutagenic call (Test System: AMES SALMONELLA TYPHIMURIUM, Strain/Indicator: TA102, Metabolic Activation: S-9, Method: PREINCUBATION)?
**A.** The mutagenic call was “inactive; negative”.

**Q.** What about the mutagenic call (Test System: AMES SALMONELLA TYPHIMURIUM, Strain/Indicator: TA104, Metabolic Activation: NONE, Method: PREINCUBATION) of the same molecule?
**A.** The mutagenic call was “inactive; negative”.

**Q.** And the mutagenic call (Test System: AMES SALMONELLA TYPHIMURIUM, Strain/Indicator: TA104, Metabolic Activation: RAT, LIVER, S-9, PHENOBARBITAL AND 5,6-BENZOFLAVONE, Method: PREINCUBATION)?
**A.** Its mutagenic call is “inactive; negative”.

**Q.** And the mutagenic call (Test System: AMES SALMONELLA TYPHIMURIUM, Strain/Indicator: TA104, Metabolic Activation: RAT, LIVER, S-9, SODIUM PHENOBARBITAL AND 5,6-BENZOFLAVONE, Method: PREINCUBATION)?
**A.** The mutagenic call was “inactive; negative”.

**Q.** What about the mutagenic call [4] of the same molecule?
**A.** The mutagenic call was “inactive; negative”.

**Q.** And the mutagenic call (Test System: AMES SALMONELLA TYPHIMURIUM, Strain/Indicator: TA1535, Metabolic Activation: RAT, LIVER, S-9, SODIUM PHENOBARBITAL AND 5,6-BENZOFLAVONE, Method: PREINCUBATION)?
**A.** Its mutagenic call is “inactive; negative”.

**Q.** What about the mutagenic call (Test System: AMES SALMONELLA TYPHIMURIUM, Strain/Indicator: TA1537, Metabolic Activation: NONE, Method: PREINCUBATION) of the same molecule?
**A.** Its mutagenic call is “inactive; negative”.

**Q.** What about the mutagenic call (Test System: AMES SALMONELLA TYPHIMURIUM, Strain/Indicator: TA1537, Metabolic Activation: RAT, LIVER, S-9, SODIUM PHENOBARBITAL AND 5,6-BENZOFLAVONE, Method: PREINCUBATION) of the same molecule?
**A.** The mutagenic call was “inactive; negative”.

**Q.** And the mutagenic call (Test System: E. COLI, Strain/Indicator: WP2UVRA/PKM101, Metabolic Activation: NONE, Method: PREINCUBATION)?
**A.** Its mutagenic call is “inactive; negative”.

**Q.** And the mutagenic call (Test System: E. COLI, Strain/Indicator: WP2UVRA/PKM101, Metabolic Activation: RAT, LIVER, S-9, SODIUM PHENOBARBITAL AND 5,6-BENZOFLAVONE, Method: PREINCUBATION)?
**A.** The mutagenic call was “inactive; negative”.

**Q.** And the mutagenic call (Test System: E. COLI, Strain/Indicator: WP2UVRA, Metabolic Activation: NONE, Method: PREINCUBATION)?
**A.** The mutagenic call was “inactive; negative”.

**Q.** And the mutagenic call (Test System: E. COLI, Strain/Indicator: WP2UVRA, Metabolic Activation: RAT, LIVER, S-9, SODIUM PHENOBARBITAL AND 5,6-BENZOFLAVONE, Method: PREINCUBATION)?
**A.** The mutagenic call was “inactive; negative”.

— PubChem BioAssay AID1259407 (Chemical Carcinogenesis Research Information System (CCRIS), 2018)
